Patent US11332459B2 (TEIJIN PHARMA LIMITED, priority 2017, dated 2022)
Structures can show the parent of a compound that is named as a salt.

Molecular target: T1, human TRPC6 (Homo sapiens, UniProt Q9Y210)
T1 construct: expressed in transfected cells
T1 sequence (Q9Y210 1-931): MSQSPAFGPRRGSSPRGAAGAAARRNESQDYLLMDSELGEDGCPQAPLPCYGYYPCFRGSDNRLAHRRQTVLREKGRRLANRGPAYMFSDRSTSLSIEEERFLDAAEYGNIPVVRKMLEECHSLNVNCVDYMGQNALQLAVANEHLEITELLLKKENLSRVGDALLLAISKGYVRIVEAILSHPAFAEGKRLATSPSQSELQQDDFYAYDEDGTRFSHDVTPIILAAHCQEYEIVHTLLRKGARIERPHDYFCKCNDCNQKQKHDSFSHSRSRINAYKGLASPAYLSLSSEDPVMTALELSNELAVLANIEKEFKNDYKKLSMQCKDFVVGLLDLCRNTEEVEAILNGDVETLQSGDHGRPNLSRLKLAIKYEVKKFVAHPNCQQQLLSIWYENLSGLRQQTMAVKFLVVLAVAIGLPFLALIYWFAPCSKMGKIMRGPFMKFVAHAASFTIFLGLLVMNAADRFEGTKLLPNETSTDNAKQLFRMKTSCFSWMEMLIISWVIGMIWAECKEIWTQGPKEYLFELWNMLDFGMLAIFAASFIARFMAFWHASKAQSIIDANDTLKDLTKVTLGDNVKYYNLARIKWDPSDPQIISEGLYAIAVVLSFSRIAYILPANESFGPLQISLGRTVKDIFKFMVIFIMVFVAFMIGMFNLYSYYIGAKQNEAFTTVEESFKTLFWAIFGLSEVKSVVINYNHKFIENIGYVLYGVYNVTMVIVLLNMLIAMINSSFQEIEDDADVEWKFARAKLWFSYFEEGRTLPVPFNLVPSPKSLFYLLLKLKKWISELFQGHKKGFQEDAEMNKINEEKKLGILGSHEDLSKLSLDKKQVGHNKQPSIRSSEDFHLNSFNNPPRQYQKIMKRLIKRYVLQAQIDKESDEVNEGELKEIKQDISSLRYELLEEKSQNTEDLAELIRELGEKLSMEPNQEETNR
Assay: TRPC6 calcium flux assay (FLIPR, OAG-stimulated calcium influx)
Assay type: cell-based
Conditions: HEK293 cells stably transfected with human TRPC6, read-out: hTRPC6 Potency
Method in brief: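 IC50 derived by plotting background-corrected peak fluorescence (180 s window, normalized to OAG-triggered signal vs buffer) against dose. Stable human TRPC6 HEK293 line was dye-loaded, exposed to compound 25 min, then challenged with 50 uM final OAG in 2 mM Ca2+ HEPES buffer pH 7.2, 0.5% DMSO.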

| Compound | IC50 [µM] |
| --- | --- |
| CN(CC(F)(F)F)C(=O)Cn1c(N2CC[C@@H](CN)C2)nc2ccc(F)cc21 [Example 491, (S)-2-(2-(3-(aminomethyl)pyrrolidin-1-yl)-6-fluoro-1H-benzo[d]imidazol-1-yl)-N-methyl-N-(2,2,2-trifluoroethyl)acetamide] | > 3.75 |
| N[C@H]1CCCN(c2nc3ccccc3n2Cc2ccc(Cl)cn2)C1 [Example 209, (S)-1-(1-((5-chloropyridin-2-yl)methyl)-1H-benzo[d]imidazol-2-yl)piperidin-3-amine] | 0.00387 |
| C[C@H](c1ccc(C#N)cn1)n1c(N2CC[C@@H]3OCCN[C@H]3C2)nc2cc(F)cc(F)c21 [Example 272, 6-((1R)-1-(5,7-difluoro-2-((4aS,8aS)-hexahydro-2H-pyrido[4,3-b][1,4]oxazin-6(5H)-yl)-1H-benzimidazol-1-yl)ethyl)-3-pyridinecarbonitrile] | 0.00281 |
| N[C@@H]1CN(c2nc3ccc(F)cc3n2Cc2ncc(Cl)cn2)CC[C@@H]1F [Example 39, (3R,4S)-1-(1-((5-chloropyrimidin-2-yl)methyl)-6-fluoro-1H-benzo[d]imidazol-2-yl)-4-fluoropiperidin-3-amine] | 0.000867 |
| COc1ccc2nc(N3CCC(F)(F)[C@H](N)C3)n(Cc3ccc(C#N)cn3)c2c1 [Example 138, 6-((2-((3R)-3-amino-4,4-difluoro-1-piperidinyl)-6-methoxy-1H-benzimidazol-1-yl)methyl)-3-pyridinecarbonitrile] | 0.00052 |
| N#Cc1ccc(Cn2c(N3CC[C@H](F)[C@H](N)C3)nc3cc(F)cc(F)c32)nc1 [Example 66, 6-((2-((3R,4S)-3-amino-4-fluoropiperidin-1-yl)-5,7-difluoro-1H-benzo[d]imidazol-1-yl)methyl)nicotinonitrile] | 0.237 |
| Cc1cc(Cn2c(N3CC[C@@H](F)[C@H](N)C3)nc3cc(F)c(F)cc32)no1 [Example 564, (3R,4R)-1-(5,6-difluoro-1-((5-methylisoxazol-3-yl)methyl)-1H-benzo[d]imidazol-2-yl)-4-fluoropiperidin-3-amine] | 0.0292 |
| CN(C(=O)Cn1c(N2CC[C@@H](F)[C@H](N)C2)nc2cc(F)c(F)cc21)C(C)(C)C#N [Example 533, 2-(2-((3R,4R)-3-amino-4-fluoropiperidin-1-yl)-5,6-difluoro-1H-benzo[d]imidazol-1-yl)-N-(2-cyanopropan-2-yl)-N-methylacetamide] | > 3.75 |
| C[C@@H](c1cccc(Cl)c1)n1c(N2CC[C@@H](F)[C@H](N)C2)nc2cc(F)c(F)cc21 [Example 327, (3R,4R)-1-(1-((1S)-1-(3-chlorophenyl)ethyl)-5,6-difluoro-1H-benzimidazol-2-yl)-4-fluoro-3-piperidinamine] | 1.37 |
| N#Cc1ccc(Cn2c(N3CC[C@@H](F)[C@H](N)C3)nc3ccc(C(F)(F)F)cc32)nc1 [Example 14, 6-((2-((3R,4R)-3-amino-4-fluoropiperidin-1-yl)-6-(trifluoromethyl)-1H-benzo[d]imidazol-1-yl)methyl)nicotinonitrile] | 0.000377 |
| N#Cc1ccc(Cn2c(N3CC[C@@H](F)[C@H](N)C3)nc3cc(F)c(C(F)(F)F)cc32)nc1 [Example 22, 6-((2-((3R,4R)-3-amino-4-fluoropiperidin-1-yl)-5-fluoro-6-(trifluoromethyl)-1H-benzo[d]imidazol-1-yl)methyl)nicotinonitrile] | 0.00162 |
| N#Cc1ccc(Cn2c(N3CC[C@@H](F)[C@H](N)C3)nc3cc(F)c(F)cc32)c(OC(F)F)c1 [Example 342, 4-((2-((3R,4R)-3-amino-4-fluoro-1-piperidinyl)-5,6-difluoro-1H-benzimidazol-1-yl)methyl)-3-(difluoromethoxy)benzo-nitrile] | 0.0121 |
| N#Cc1ccc(Cn2c(N3C[C@@H]4NCCO[C@H]4C3)nc3ccccc32)nc1 [Example 101, 6-((2-((4aS,7aS)-hexahydropyrrolo[3,4-b][1,4]oxazin-6(2H)-yl)-1H-benzo[d]imidazol-1-yl)methyl)nicotinonitrile] | > 3.75 |
| N[C@@H]1CN(c2nc3c(F)cc(F)cc3n2Cc2ccc(F)cn2)CC[C@H]1F [Example 33, (3R,4R)-1-(4,6-difluoro-1-((5-fluoropyridin-2-yl)methyl)-1H-benzo[d]imidazol-2-yl)-4-fluoropiperidin-3-amine] | 0.000432 |
| N#Cc1cc(F)cc2c1nc(N1CC[C@H](F)[C@H](N)C1)n2Cc1ncc(Cl)cn1 [Example 149, 2-((3R,4S)-3-amino-4-fluoropiperidin-1-yl)-1-((5-chloropyrimidin-2-yl)methyl)-6-fluoro-1H-benzo[d]imidazole-4-carbonitrile] | 0.00109 |
| N#Cc1cnc(Cn2c(N3CC[C@@H](F)[C@H](N)C3)nc3cc(F)ccc32)nc1 [Example 443, 2-((2-((3R,4R)-3-amino-4-fluoropiperidin-1-yl)-5-fluoro-1H-benzo[d]imidazol-1-yl)methyl)pyrimidine-5-carbonitrile] | 0.000471 |
| Cc1nnc(Cn2c(N3CC[C@@H](F)[C@H](N)C3)nc3cc(F)ccc32)s1 [Example 582, (3R,4R)-4-fluoro-1-(5-fluoro-1-((5-methyl-1,3,4-thiadiazol-2-yl)methyl)-1H-benzo[d]imidazol-2-yl)piperidin-3-amine] | 0.376 |
| N[C@@H]1CN(c2nc3cc(F)c(F)cc3n2CC(=O)N2CCN(C(=O)C3CC3)CC2)CC[C@H]1F [Example 531, 2-(2-((3R,4R)-3-amino-4-fluoropiperidin-1-yl)-5,6-difluoro-1H-benzo[d]imidazol-1-yl)-1-(4-(cyclopropanecarbonyl)piperazin-1-yl)ethan-1-one] | > 3.75 |
| C[C@H](c1ccc(C#N)cn1)n1c(N2CC[C@@H](F)[C@H](N)C2)nc2ccccc21 [Example 297, 6-((R)-1-(2-((3R,4R)-3-amino-4-fluoropiperidin-1-yl)-1H-benzo[d]imidazol-1-yl)ethyl)nicotinonitrile hydrochloride] | 0.0785 |
| N[C@H]1CCCN(c2nc3ccccc3n2Cc2ccc(F)cc2)C1 [Example 368, (S)-1-(1-(4-fluorobenzyl)-1H-benzo[d]imidazol-2-yl)piperidin-3-amine] | 0.0992 |
| N#Cc1ccc2c(c1)nc(N1CC[C@H](F)[C@H](N)C1)n2CC(=O)N1CCC1 [Example 288, 2-((3R,4S)-3-amino-4-fluoro-1-piperidinyl)-1-(2-(1-azetidinyl)-2-oxoethyl)-1H-benzimidazole-5-carbonitrile] | > 3.75 |
| N#Cc1cnc(Cn2c(N3CCC(F)(F)[C@H](N)C3)nc3ccc(Cl)cc32)cn1 [Example 233, (R)-5-((2-(3-amino-4,4-difluoropiperidin-1-yl)-6-chloro-1H-benzo[d]imidazol-1-yl)methyl)pyrazine-2-carbonitrile] | 0.00147 |
| N#Cc1ccc2nc(N3CC[C@@H](F)[C@H](N)C3)n(Cc3ncc(Br)cn3)c2c1 [Example 200, 2-((3R,4R)-3-amino-4-fluoropiperidin-1-yl)-1-((5-bromopyrimidin-2-yl)methyl)-1H-benzo[d]imidazole-6-carbonitrile] | 0.00218 |
| COc1cc(F)cc2c1nc(N1CC[C@@H](F)[C@H](N)C1)n2Cc1ccc(C#N)cn1 [Example 452, 6-((2-((3R,4R)-3-amino-4-fluoropiperidin-1-yl)-6-fluoro-4-methoxy-1H-benzo[d]imidazol-1-yl)methyl)nicotinonitrile] | 0.00117 |
| CCN(C)C(=O)Cn1c(N2CC[C@@H](F)[C@H](N)C2)nc2cc(F)c(F)cc21 [Example 605, 2-(2-((3R,4R)-3-amino-4-fluoropiperidin-1-yl)-5,6-difluoro-1H-benzo[d]imidazol-1-yl)-N-ethyl-N-methylacetamide] | 0.0079 |
| N[C@@H]1CN(c2nc3cc(F)ccc3n2Cc2ncc(Cl)cn2)CC[C@H]1O [Example 494, (3R,4R)-3-amino-1-(1-((5-chloropyrimidin-2-yl)methyl)-5-fluoro-1H-benzo[d]imidazol-2-yl)piperidin-4-ol] | 0.0126 |
| N#Cc1cccc(Cn2c(N3CCC[C@@H](N)C3)nc3ccccc32)c1 [Example 400, (R)-3-((2-(3-aminopiperidin-1-yl)-1H-benzo[d]imidazol-1-yl)methyl)benzonitrile] | 16.5 |
| N[C@@H]1CN(c2nc3cc(F)c(F)cc3n2Cc2ccccc2Cl)CC[C@H]1F [Example 354, (3R,4R)-1-(1-(2-chlorobenzyl)-5,6-difluoro-1H-benzimidazol-2-yl)-4-fluoro-3-piperidinamine] | 0.133 |
| N[C@@H]1CN(c2nc3ccc(F)cc3n2Cc2ncc(Cl)cn2)CC[C@H]1F [Example 289, (3R,4R)-1-(1-((5-chloropyrimidin-2-yl)methyl)-6-fluoro-1H-benzo[d]imidazol-2-yl)-4-fluoropiperidin-3-amine] | 0.0735 |
